{
  "source": "patent US12642783B2",
  "about": "“Method for treating vaso occlusive crises associated with Sickle cell disease” (Nicox SA, priority 2020, dated 2026)",
  "key": {"[1]": {"tested_on": "vaso-occlusive crises", "details": "sickle cell disease; cited from earlier work"}, "[2]": {"tested_on": "Nitrite", "assay": "Plasma nitrite levels after intravenous administration in Sickle Cell mouse model (thrombin challenge)", "assay_type": "in vivo", "details": "Homozygous Sickle Cell transgenic mice, 15 mg/kg intravenous, at one hour after thrombin (FIG. 1)", "method": "(§1) This trial was conducted to assess the efficacy of 4-(nitrooxy)butyl-(2S)-2-(6-methoxy-2-naphthyl) propanoate (naproxcinod) to increase Nitrite (a precursor to NO), and cGMP in Homozygous Townes Sickle Cell transgenic mice.\n(§2) Homozygous Sickle Cell transgenic mice were treated with either 4-(nitrooxy)butyl-(2S)-2-(6-methoxy-2-naphthyl) propanoate (naproxcinod) (15 mg/kg) or naproxen (15 mg/kg—as a control) or saline (as a vehicle control) by intravenous injection. After one hour, the mice were injected with thrombin (1 u/20 g) to induce platelet activation. Blood was drawn at […] after thrombin administration. Plasma nitrite levels were measured as a marker of nitric oxide bioavailability. cGMP levels were measured after addition of IBMX (3-Isobutyl-1-methylxanthine) (100 uM) to prevent cGMP degradation. Platelets were isolated and activation measured by surface expression of p-selectin."}, "[3]": {"tested_on": "osteoarthritis (OA) of the knee", "details": "human studies, OA of the knee patients; cited from earlier work"}, "[4]": {"tested_on": "blood pressure", "details": "3 pivotal trials, 2,734 patients with osteoarthritis of the hip or knee; cited from earlier work"}, "[5]": {"tested_on": "cGMP", "assay": "cGMP levels after intravenous administration in Sickle Cell mouse model (thrombin challenge)", "assay_type": "in vivo, mice", "details": "for cGMP levels compared to thrombin alone or naproxen administration: Homozygous Sickle Cell transgenic mice, 15 mg/kg intravenous, p<0.01 (FIG. 2)", "method": "as §1, §2"}, "[6]": {"details": "approved package insert (Novartis, 2019); cited from earlier work"}},
  "data": [
    {"molecule": "NC(=O)NO", "note": "[Droxia, hydroxyurea]", "values": [
      {"measurement": "frequency of vaso-occlusive crises", "setting": "[1]", "result": "reduce the frequency"}
    ]},
    {"molecule": "NC(=O)CC[C@H](N)C(=O)O", "note": "[Endari, L-glutamine]", "values": [
      {"measurement": "frequency of vaso-occlusive crises", "setting": "[1]", "result": "reduce the frequency"}
    ]},
    {"molecule": "COc1ccc2cc([C@H](C)C(=O)OCCCCO[N+](=O)[O-])ccc2c1", "note": "[naproxcinod, 4-(nitrooxy)butyl-(2S)-2-(6-methoxy-2-naphthyl) propanoate]", "values": [
      {"measurement": "nitrite concentration compared to thrombin alone or naproxen administration", "setting": "[2]", "result": "statistically greater"},
      {"measurement": "management of the signs and symptoms of OA", "setting": "[3]", "result": "clinical efficacy and safety"},
      {"measurement": "hypertensive burden induced by most NSAIDs", "setting": "[4]", "result": "reduce some of the hypertensive burden"},
      {"measurement": "cGMP levels compared to thrombin alone or naproxen administration", "setting": "[5]; at 30 minutes after thrombin", "result": "significantly increased"},
      {"measurement": "cGMP levels compared to thrombin alone or naproxen administration", "setting": "[5]; at 60 minutes after thrombin", "result": "significantly increased"},
      {"measurement": "cyclic guanosine monophosphate level (cGMP level)", "setting": "[5]; Sickle cell animal model, summary statement", "result": "able to increase"}
    ]},
    {"molecule": "crizanlizumab-tmca (antibody, chains of the INN, looked up, V domains shown, FDA-approved drug for vaso-occlusive crises complication in sickle cell disease) VH: QVQLVQSGAEVKKPGASVKVSCKVSGYTFTSYDINWVRQAPGKGLEWMGWIYPGDGSIKYNEKFKGRVTMTVDKSTDTAYMELSSLRSEDTAVYYCARRGEYGNYEGAMDYWGQGTLVTVSS VL: DIQMTQSPSSLSASVGDRVTITCKASQSVDYDGHSYMNWYQQKPGKAPKLLIYAASNLESGVPSRFSGSGSGTDFTLTISSLQPEDFATYYCQQSDENPLTFGGGTKVEIK", "values": [
      {"measurement": "incidence rate of arthralgia", "setting": "[6]", "result": 18, "unit": "%"},
      {"measurement": "incidence rate of back pain", "setting": "[6]", "result": 15, "unit": "%"},
      {"measurement": "frequency of vaso-occlusive crises", "setting": "[1]", "result": "reduce the frequency"}
    ]}
  ]
}
